Laboratory results taken from patent US20030190642A1, “Thymus expressed human cytochrome p450(p450tec)” (priority 2003, published 2003).

Target: T1, P450TEC (Homo sapiens, UniProt Q7Z449)
T1 construct: One of 5 clones contained a putative full length cytochrome, which we have named P450TEC; made in house; host or cells: Sf9 insect cells, recombinant baculovirus (pVL1392 transfer vector); microsomal fraction
T1 sequence (Q7Z449 1-544): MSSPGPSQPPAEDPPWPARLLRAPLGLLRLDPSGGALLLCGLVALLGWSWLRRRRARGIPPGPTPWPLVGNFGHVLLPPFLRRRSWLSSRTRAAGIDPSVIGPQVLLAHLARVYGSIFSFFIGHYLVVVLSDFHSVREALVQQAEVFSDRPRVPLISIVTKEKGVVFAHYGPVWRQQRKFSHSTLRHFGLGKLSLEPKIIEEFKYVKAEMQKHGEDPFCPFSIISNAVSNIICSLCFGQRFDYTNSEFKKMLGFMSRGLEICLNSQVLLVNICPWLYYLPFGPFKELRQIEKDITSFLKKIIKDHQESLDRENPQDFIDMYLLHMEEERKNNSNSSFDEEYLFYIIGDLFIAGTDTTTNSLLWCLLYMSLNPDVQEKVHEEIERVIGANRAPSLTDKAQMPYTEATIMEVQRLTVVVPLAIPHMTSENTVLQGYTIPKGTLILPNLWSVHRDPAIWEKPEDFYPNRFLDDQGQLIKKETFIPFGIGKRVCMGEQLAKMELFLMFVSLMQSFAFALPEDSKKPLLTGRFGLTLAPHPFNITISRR
Assay: Arachidonic acid metabolism by baculovirus-Sf9-expressed P450TEC microsomes (HPLC, LC-MS)
Type: biochemical
Description: Cultured Sf9 insect cells expressing recombinant P450TEC were harvested 3 days after infection, washed twice with phosphate buffered saline (PBS) and resuspended in lysis buffer (100 mM Tris-HCl, pH 7.4, 1 mM EDTA, 0.5 M sucrose) containing protease inhibitor cocktail (Roche Diagnostics GmbH, Mannheim, Germany, 1 tablet per 10 ml lyses buffer). Cells were disrupted by brief sonication (5-8 bursts of 5 seconds duration) on ice using 550 Sonic Dismembrator (Fisher Scientific, Canada). The resulting cell lysates were successively centrifuged, at 800g, and 10,000g for 10 min each time at 4° C. Microsomal fractions from the 10,000g supernatants were pelleted by centrifugation at ˜1 00,000g for 60 min at 4° C. The pellet was then resuspended in microsomes storage buffer (10 mM Tris-HCl, pH 7.4, 5 mM MgCl2, 1mM EDTA, 150 mM KCI and 10% glycerol) and stored at −70° C. […]
For MS and MS/MS analyses of arachidonic acid metabolites, 5 μM of unlabeled arachidonic acid was incubated for 60 min. […] Similarly, ethyl acetate extracts from microsomal incubations without arachidonic acid was also processed and analyzed by LC-MS. […]

Which “linearity of arachidonic acid metabolite formation with time” value (5 μM [1-14C] arachidonic acid, NADPH-CYP oxidoreductase+b5 and NADPH, 15, 30 and 60 min) does the source give for `CCCCCC=CCC=CCC=CCC=CCCCC(=O)O` [arachidonic acid, 5,8, 11, 14-eicosatetraenoic acid] here?
Its value is “directly porportional to time of incubation”.

And the “metabolite formed from arachidonic acid by P450TEC” value (P450TEC microsomes, NADPH, 1 or 20 μM [1-14C] arachidonic acid, 60 min, 37° C.)?
Its value is “monohydroxylated arachidonic acid”.
